# Measured values published in patent US9533952B2, “N-prop-2-ynyl carboxamide derivatives and their use as TRPA1 antagonists” (Orion Corporation, priority 2012, dated 2017).
# Target: TRPA1 (Homo sapiens, UniProt O75762)
# Assay: Determination of TRPA1 activity in vitro (TRPA1 antagonism in vitro)
# Assay type: cell-based
# Conditions: procedure of Wei et al., Anesthesiology 111 (2009) 147-154
# Sequence of TRPA1 (O75762 whole entry): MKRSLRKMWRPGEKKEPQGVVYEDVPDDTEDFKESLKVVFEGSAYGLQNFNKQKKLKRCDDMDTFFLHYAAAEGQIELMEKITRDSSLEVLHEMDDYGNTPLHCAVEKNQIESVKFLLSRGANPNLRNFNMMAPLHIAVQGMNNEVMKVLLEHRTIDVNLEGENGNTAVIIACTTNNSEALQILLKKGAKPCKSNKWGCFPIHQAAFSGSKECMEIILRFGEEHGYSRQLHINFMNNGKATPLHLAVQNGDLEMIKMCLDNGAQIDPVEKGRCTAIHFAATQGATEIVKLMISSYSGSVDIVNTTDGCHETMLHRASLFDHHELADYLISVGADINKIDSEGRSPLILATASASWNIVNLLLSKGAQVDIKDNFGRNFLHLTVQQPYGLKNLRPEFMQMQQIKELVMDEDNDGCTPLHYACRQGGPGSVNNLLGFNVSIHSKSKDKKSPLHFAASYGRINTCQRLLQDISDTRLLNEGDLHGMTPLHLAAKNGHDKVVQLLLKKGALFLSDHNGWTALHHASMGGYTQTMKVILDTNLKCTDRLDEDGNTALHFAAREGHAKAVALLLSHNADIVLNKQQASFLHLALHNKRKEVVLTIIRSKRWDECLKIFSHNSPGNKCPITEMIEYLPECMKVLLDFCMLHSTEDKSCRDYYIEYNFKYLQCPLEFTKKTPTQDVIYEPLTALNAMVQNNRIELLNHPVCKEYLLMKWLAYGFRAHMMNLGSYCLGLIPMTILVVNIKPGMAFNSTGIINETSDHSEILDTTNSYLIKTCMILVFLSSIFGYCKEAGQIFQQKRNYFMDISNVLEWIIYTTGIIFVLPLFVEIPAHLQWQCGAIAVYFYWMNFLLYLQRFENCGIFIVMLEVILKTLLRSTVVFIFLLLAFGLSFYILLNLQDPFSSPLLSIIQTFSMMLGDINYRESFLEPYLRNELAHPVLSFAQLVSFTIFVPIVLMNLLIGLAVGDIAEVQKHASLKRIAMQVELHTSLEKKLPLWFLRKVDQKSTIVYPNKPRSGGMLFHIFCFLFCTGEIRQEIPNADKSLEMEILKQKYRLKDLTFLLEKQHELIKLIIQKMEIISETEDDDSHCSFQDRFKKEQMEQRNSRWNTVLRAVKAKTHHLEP
row,IC50 [nM],Structure (SMILES)
1,5900,"C#CC(C)(C)NC(=O)c1cccnc1NC1CC(F)(F)C1 [Example 133, 2-(3,3-Difluorocyclobutylamino)-N-(2-methylbut-3-yn-2-yl)nicotinamide]"
2,700,"C#CC(C)(C)NC(=O)c1cc(OC(F)(F)F)ccc1NCCC(F)(F)F [Example 75, N-(2-Methylbut-3-yn-2-yl)-5-(trifluoromethoxy)-2-(3,3,3-trifluoropropylamino)benzamide]"
3,1900,"C#CC(C)(C)NC(=O)c1cccnc1Nc1ccc(F)cc1F [Example 173, 2-(2,4-Difluorophenylamino)-N-(2-methylbut-3-yn-2-yl)nicotinamide]"
4,300,"C#CC(C)(CC)NC(=O)c1cc(F)cnc1Nc1ccccc1 (stereo not shown) [Example 172, 5-Fluoro-N-(3-methylpent-1-yn-3-yl)-2-(phenylamino)nicotinamide]"
5,5400,"C#CC(C)(C)NC(=O)c1cc(F)c(F)cc1NC(C)(C)C [Example 82, 2-(tert-Butylamino)-4,5-difluoro-N-(2-methylbut-3-yn-2-yl)benzamide]"
6,1900,"C#CC(C)(C)NC(=O)c1cccnc1Nc1ccc(OC)c(Cl)c1 [Example 150, 2-(3-Chloro-4-methoxyphenylamino)-N-(2-methylbut-3-yn-2-yl)nicotinamide]"
7,100,"C#CC(C)(CC)NC(=O)c1cc(F)cnc1NC1CC(F)(F)C1 (stereo not shown) [Example 164, 2-(3,3-Difluorocyclobutylamino)-5-fluoro-N-(3-methylpent-1-yn-3-yl)nicotinamide]"
8,18700,"C#CC(CC)(CC)NC(=O)c1cccc2cc[nH]c12 [Example 119, N-(3-Ethylpent-1-yn-3-yl)-1H-indole-7-carboxamide]"
9,900,"C#CC(C)(C)NC(=O)c1cc(F)c(F)cc1NCCC(F)(F)F [Example 66, 4,5-Difluoro-N-(2-methylbut-3-yn-2-yl)-2-(3,3,3-trifluoropropylamino)-benzamide]"
10,2900,"C#CC(C)(C)NC(=O)c1ccc(F)cc1NC(C)C [Example 83, 4-Fluoro-2-(isopropylamino)-N-(2-methylbut-3-yn-2-yl)benzamide]"

# The remaining lines, values behind:
row,Structure (SMILES),IC50 [nM]
1,"C#CC(C)(C)NC(=O)c1cccnc1NCCCc1ccccc1 [Example 143, N-(2-Methylbut-3-yn-2-yl)-2-(3-phenylpropylamino)nicotinamide]",3800
2,"C#CC(C)(C)NC(=O)c1cc(C(F)(F)F)ccc1NCC(F)F [Example 10, 2-(2,2-Difluoroethylamino)-N-(2-methylbut-3yn-2-yl)-5-(trifluoromethyl)benzamide]",1500
3,"C#CC(C)(C)NC(=O)c1cc(Cl)cnc1NC1CCC1 [Example 27, 5-Chloro-2-(cyclobutylamino)-N-(2-methylbut-3-yn-2-yl)nicotinamide]",700
4,"C#CC(C)(C)NC(=O)c1cccnc1Nc1cccc(OC)c1F [Example 169, 2-(2-Fluoro-3-methoxyphenylamino)-N-(2-methylbut-3-yn-2-yl)nicotinamide]",34800
5,"C#CC(C)(C)NC(=O)c1cccnc1NCCCC [Example 100, 2-(Butylamino)-N-(2-methylbut-3-yn-2-yl)nicotinamide]",6600
6,"C#CC(C)(C)NC(=O)c1cc2c(cc1NCCC(F)(F)F)OCCO2 [Example 6, N-(2-Methylbut-3-yn-2-yl)-7-(3,3,3-trifluoropropylamino)-2,3-dihydrobenzo[b][1,4]dioxine-6-carboxamide]",11800
7,"C#CC(C)(C)NC(=O)c1cc(Cl)cnc1NC(C)(C)C [Example 155, 2-(tert-Butylamino)-5-chloro-N-(2-methylbut-3-yn-2-yl)nicotinamide]",800
8,"C#CC(C)(C)NC(=O)c1cc(Cl)cnc1NC1CC(F)(F)C1 [Example 139, 5-Chloro-2-(3,3-difluorocyclobutylamino)-N-(2-methylbut-3-yn-2-yl)nicotinamide]",300
9,"C#CC(C)(C)NC(=O)c1cccnc1Nc1cc(F)cc(C#N)c1 [Example 183, 2-(3-Cyano-5-fluorophenylamino)-N-(2-methylbut-3-yn-2-yl)nicotinamide]",1400
